Test system: mouse liver microsomes, LC-MS/MS half-life
Test: Inhibitors of Cruzain: Metabolic Stability Theory
Settings: at 1 µM; hits give high values
Excerpt: Chagas Disease is a neglected tropical disease that affects over 16 million people in Latin America. The cysteine protease cruzain is essential for the survival Trypanosoma cruzi, the parasitic agent responsible for Chagas disease. Potential intervention for T. cruzi includes the inhibition of cruzain. This bioassay will summarize the ongoing development of small molecule cruzain inhbitiors. Currently, a screen of ~200k compounds and through extensive follow-up work a probe was identified. To further characterize the probe, it was tested in in vitro ADME assays. Mouse liver microsomes are created through broken up endoplasmic reticulum from mouse liver. These liver microsomes contain many drug metabolizing enzymes, such as Cytochome P-450s and flavin-containing monooxygenases. Because metabolism is major way of drug clearance, this is an important result. NIH Chemical Genomics Center [NCGC] NIH Molecular Libraries Probe Production Centers Network [MLPCN] MLSCN Grant: DA024891-01 PI Name: Dr. Brian Shoichet; University of California, San Francisco
1uM of compound in incubated in mouse liver microsome; the reference compound is ketanserin. Compounds are incubated at 37 degrees C for different time periods: 0, 5, 15, 30, 45, and 60 minutes. Samples are analyzed with LC-MS/MS.

Cc1ccc(OCCn2c(CCNC(=O)C3CCCCC3)nc3ccccc32)cc1
half-life: 8 min

Reference: PubChem BioAssay AID504754 (National Center for Advancing Translational Sciences (NCATS), 2011)
